Data taken from patent publication US20230286969A1, “AROMATIC SPIRO RING AMIDE DERIVATIVES FOR THE TREATMENT AND PROPHYLAXIS OF HEPATITIS B VIRUS INFECTION” (Hoffmann-La Roche Inc., priority 2020, published 2023).

What was measured:
Assay type in all cases: cell-based
HBsAg = test: PHH HBV natural infection assay, HBsAg (alphalisa); conditions: Hepatitis B virus, Hepatocyte, 72 h, read-out: HBsAg IC50, HBV-infected primary human hepatocytes, supernatant, compound medium refreshed two times with 72-hour interval
Summary of the method: (§1)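 Primary human hepatocytes infected with HBV at 200 GE/cell plus 4% PEG8000 for 24 h, then sandwich-cultured 72 h. Compounds were added in two refreshes 72 h apart. HBsAg and HBeAg in supernatant measured by AlphaLISA.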

[1] = PHH natural infection assay, cytotoxicity (Cell Counting Kit-8); conditions: human, HBV-infected primary human hepatocytes, CCK8, end of treatment
Summary of the method: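 HBV-infected at 200 GE/cell with 4% PEG8000 for 24 h, then sandwich-cultured 72 h in 1% DMSO and 0.25 mg/mL matrix gel. Compound added twice at 72-h intervals; supernatant HBsAg and HBeAg read by AlphaLISA, HBV DNA by quantitative fluorescence PCR kit. Cytotoxicity by CCK-8.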

HBeAg = test: PHH HBV natural infection assay, HBeAg (alphalisa); conditions: Hepatitis B virus, Hepatocyte, 72 h, read-out: HbeAg IC50, HBV-infected primary human hepatocytes, supernatant, compound medium refreshed two times with 72-hour interval
Summary of the method: as §1

| SMILES | IC50 (HBsAg) [µM] | CC50 at 144 h [1] [µM] | IC50 (HBeAg) [µM] |
| --- | --- | --- | --- |
| O=C(NC1CC2(C1)CC(c1nc3ccc(F)cc3o1)C2)c1ccc(C(F)(F)F)o1 (stereo not drawn) [Example 47, N-[6-(6-fluoro-1,3-benzoxazol-2-yl)spiro[3.3]heptan-2-yl]-5-(trifluoromethyl)furan-2-carboxamide] | 9.59 | > 100 | 10.6 |
| CS(=O)(=O)c1ccc(C(=O)NC2CC3(C2)CC(c2nc4cc(Cl)cnc4o2)C3)o1 (stereo not drawn) [Example 48, N-[6-(6-chlorooxazolo[5,4-b]pyridin-2-yl)spiro[3.3]heptan-2-yl]-5-methylsulfonyl-furan-2-carboxamide] | 2.4 | > 100 | 1.82 |
| O=C(NC1CC2(C1)CC(c1nc3cc(Cl)cnc3o1)C2)c1ccc(S(=O)(=O)C2CC2)o1 (stereo not drawn) [Example 49, N-[6-(6-chlorooxazolo[5,4-b]pyridin-2-yl)spiro[3.3]heptan-2-yl]-5-cyclopropylsulfonyl-furan-2-carboxamide] | 2.4 | 84.5 | 1.74 |
| O=C(NC1CC2(C1)CC(c1nc3cc(Cl)cnc3o1)C2)c1ccc([S+]([O-])C2CC2)o1 (stereo not drawn) [Example 50, N-[6-(6-chlorooxazolo[5,4-b]pyridin-2-yl)spiro[3.3]heptan-2-yl]-5-cyclopropylsulfinyl-furan-2-carboxamide] | 0.54 | > 100 | 0.35 |
| O=C(NC1CC2(C1)CC(c1nc3cnc(Cl)cc3o1)C2)c1ccc(S(=O)(=O)C2CC2)o1 (stereo not drawn) [Example 51, N-[6-(6-chlorooxazolo[4,5-c]pyridin-2-yl)spiro[3.3]heptan-2-yl]-5-cyclopropylsulfonyl-furan-2-carboxamide] | 1.8 | > 100 | 1.15 |
| CS(=N)(=O)c1ccc(C(=O)NC2CC3(C2)CC(c2nc4cc(Cl)ccc4o2)C3)o1 (stereo not drawn) [Example 52, N-[6-(5-chloro-1,3-benzoxazol-2-yl)spiro[3.3]heptan-2-yl]-5-(methylsulfonimidoyl)furan-2-carboxamide] | 1.7 | 72 | 1.2 |
| [H][C@]1(NC(=O)c2ccc([S@](C)(=N)=O)o2)C[C@]2(C1)C[C@]([H])(c1nc3cc(Cl)ccc3o1)C2 (stereo partly drawn) [Example 52-d, (Ra)—N-[6-(5-chloro-1,3-benzoxazol-2-yl)spiro[3.3]heptan-2-yl]-5-[(R)-methylsulfonimidoyl]furan-2-carboxamide] | 0.966 | > 100 | 0.876 |
| N=S(=O)(c1ccc(C(=O)NC2CC3(C2)CC(c2nc4cc(Cl)ccc4o2)C3)o1)C1CC1 (stereo not drawn) [Example 53, N-[6-(5-chloro-1,3-benzoxazol-2-yl)spiro[3.3]heptan-2-yl]-5-(cyclopropylsulfonimidoyl)furan-2-carboxamide] | 0.494 | > 10 | 0.394 |
| [H][C@]1(NC(=O)c2ccc([S@](=N)(=O)C3CC3)o2)C[C@]2(C1)C[C@]([H])(c1nc3cc(Cl)ccc3o1)C2 (stereo partly drawn) [Example 53-c, (Ra)—N-[6-(5-chloro-1,3-benzoxazol-2-yl)spiro[3.3]heptan-2-yl]-5-[(R)-cyclopropylsulfonimidoyl]furan-2-carboxamide] | 0.65 | 91.9 | 0.621 |
| N=S(=O)(CC1CC1)c1ccc(C(=O)NC2CC3(C2)CC(c2nc4cc(Cl)ccc4o2)C3)o1 (stereo not drawn) [Example 54, N-[6-(5-chloro-1,3-benzoxazol-2-yl)spiro[3.3]heptan-2-yl]-5-(cyclopropylmethylsulfonimidoyl)furan-2-carboxamide] | 0.47 | 88.8 | 0.542 |
| CC(C)CS(=N)(=O)c1ccc(C(=O)NC2CC3(C2)CC(c2nc4cc(Cl)ccc4o2)C3)o1 (stereo not drawn) [Example 55, N-[6-(5-chloro-1,3-benzoxazol-2-yl)spiro[3.3]heptan-2-yl]-5-(isobutylsulfonimidoyl)furan-2-carboxamide] | 0.802 | 83.3 | 0.988 |
| N=S(=O)(CC1COC1)c1ccc(C(=O)NC2CC3(C2)CC(c2nc4cc(Cl)ccc4o2)C3)o1 (stereo not drawn) [Example 56, N-[6-(5-chloro-1,3-benzoxazol-2-yl)spiro[3.3]heptan-2-yl]-5-(oxetan-3-ylmethylsulfonimidoyl)furan-2-carboxamide] | 4.41 | > 100 | 2.9 |
| N=S(=O)(CC1CC(F)(F)C1)c1ccc(C(=O)NC2CC3(C2)CC(c2nc4cc(Cl)ccc4o2)C3)o1 (stereo not drawn) [Example 57, N-[6-(5-chloro-1,3-benzoxazol-2-yl)spiro[3.3]heptan-2-yl]-5-[(3,3-difluorocyclobutyl)methylsulfonimidoyl]furan-2-carboxamide] | 0.884 | 81.9 | 0.754 |
| CCS(=N)(=O)Cc1ccc(C(=O)NC2CC3(C2)CC(c2nc4cc(Cl)ccc4o2)C3)o1 (stereo not drawn) [Example 58, N-[6-(5-chloro-1,3-benzoxazol-2-yl)spiro[3.3]heptan-2-yl]-5-[(ethylsulfonimidoyl)methyl]furan-2-carboxamide] | 8.79 | > 100 | 5.88 |
| CC(C)S(=N)(=O)Cc1ccc(C(=O)NC2CC3(C2)CC(c2nc4cc(Cl)ccc4o2)C3)o1 (stereo not drawn) [Example 59, N-[6-(5-chloro-1,3-benzoxazol-2-yl)spiro[3.3]heptan-2-yl]-5-[(isopropylsulfonimidoyl)methyl]furan-2-carboxamide] | 3.81 | > 100 | 2.6 |
| N=S(=O)(Cc1ccc(C(=O)NC2CC3(C2)CC(c2nc4cc(Cl)ccc4o2)C3)o1)C1CC1 (stereo not drawn) [Example 60, N-[6-(5-chloro-1,3-benzoxazol-2-yl)spiro[3.3]heptan-2-yl]-5-[(cyclopropylsulfonimidoyl)methyl]furan-2-carboxamide] | 1.96 | > 100 | 1.91 |
| O=C(NC1CC2(C1)CC(c1nc3cc(Cl)ccc3o1)C2)c1ccc(S2(=O)=NCCC2)o1 (stereo not drawn) [Example 61, N-[6-(5-chloro-1,3-benzoxazol-2-yl)spiro[3.3]heptan-2-yl]-5-(1-oxo-4,5-dihydro-3H-isothiazol-1-yl)furan-2-carboxamide] | 3.65 | > 100 | 3.14 |
| O=C(NC1CC2(C1)CC(c1nc3cc(Cl)ccc3o1)C2)c1ccc(S2(=O)=NCCCC2)o1 (stereo not drawn) [Example 62, N-[6-(5-chloro-1,3-benzoxazol-2-yl)spiro[3.3]heptan-2-yl]-5-(1-oxo-1lambda6-thia-2-azacyclohexen-1-yl)furan-2-carboxamide] | 5.01 | > 100 | 4.85 |
| CS(=N)(=O)c1ccc(C(=O)NC2CC3(C2)CC(c2nc4cc(Cl)cnc4o2)C3)o1 (stereo not drawn) [Example 63, N-[6-(6-chlorooxazolo[5,4-b]pyridin-2-yl)spiro[3.3]heptan-2-yl]-5-(methylsulfonimidoyl)furan-2-carboxamide] | 6.69 | > 100 | 4.94 |
| N=S(=O)(c1ccc(C(=O)NC2CC3(C2)CC(c2nc4cc(Cl)cnc4o2)C3)o1)C1CC1 (stereo not drawn) [Example 64, N-[6-(6-chlorooxazolo[5,4-b]pyridin-2-yl)spiro[3.3]heptan-2-yl]-5-(cyclopropylsulfonimidoyl)furan-2-carboxamide] | 2.93 | > 100 | 2.33 |
| N=S(=O)(c1ccc(C(=O)NC2CC3(C2)CC(c2nc4cnc(Cl)cc4o2)C3)o1)C1CC1 (stereo not drawn) [Example 65, N-[6-(6-chlorooxazolo[4,5-c]pyridin-2-yl)spiro[3.3]heptan-2-yl]-5-(cyclopropylsulfonimidoyl)furan-2-carboxamide] | 6.38 | > 100 | 5.83 |
| N=S(=O)(c1ccc(C(=O)NC2CC3(C2)CC(c2nc4cc(Cl)ccc4o2)C3)o1)N1CCCC1 (stereo not drawn) [Example 66, N-[6-(5-chloro-1,3-benzoxazol-2-yl)spiro[3.3]heptan-2-yl]-5-(pyrrolidin-1-ylsulfonimidoyl)furan-2-carboxamide] | 8.18 | > 10 | 3.81 |
| N=S(=O)(c1ccc(C(=O)NC2CC3(C2)CC(c2nc4cc(Cl)ccc4o2)C3)o1)N1CCOCC1 (stereo not drawn) [Example 67, N-[6-(5-chloro-1,3-benzoxazol-2-yl)spiro[3.3]heptan-2-yl]-5-(morpholinosulfonimidoyl)furan-2-carboxamide] | 6.24 | > 10 | 3.65 |
| CCCC(=O)NS(=O)(=O)c1ccc(C(=O)N[C@H]2CC3(C2)C[C@H](c2nc4cc(Cl)ccc4o2)C3)o1 (stereo partly drawn) [Example 69] | 0.329 | > 100 | 0.223 |
| O=C(N[C@H]1CC2(C1)C[C@H](c1nc3cc(Cl)ccc3o1)C2)c1ccc(S(=O)(=O)NC(=O)C2CCOC2)o1 (stereo partly drawn) [Example 77, (Sa)—N-[6-(5-chloro-1,3-benzoxazol-2-yl)spiro[3.3]heptan-2-yl]-5-(tetrahydrofuran-3-carbonylsulfamoyl)furan-2-carboxamide, or (Ra)—N-[6-(5-chloro-1,3-benzoxazol-2-yl)spiro[3.3]heptan-2-yl]-5-(tetrahydrofuran-3-carbonylsulfamoyl)furan-2-carboxamide] | 1.16 | > 100 | 0.563 |
| CC(=O)NS(=O)(=O)c1ccc(C(=O)NC2CC3(C2)CC(c2nc4cc(Cl)ccc4o2)C3)o1 (stereo not drawn) [Example 80, 5-(acetylsulfamoyl)-N-[6-(5-chloro-1,3-benzoxazol-2-yl)spiro[3.3]heptan-2-yl]furan-2-carboxamide] | 2.77 | > 100 | 1.8 |
